Assay results reported in US11173145B2, “Compounds useful as inhibitors of indoleamine 2,3-dioxygenase and/or tryptophan dioxygenase” (Board of Regents, The University of Texas System, priority 2017, dated 2021).
pIC50: −log10 of the molar value.

Columns and labels:
[1] = target: T1, mouse IDO1 (Mus musculus, UniProt P28776); test: Mouse IDO1 cell-based assay (PANC02 cells, mouse IFNgamma-induced, N-formylkynurenine/L-tryptophan by RFMS); settings: 30 ng/mL mouse IFNgamma, 48 hours
T1 construct: The murine PANC02 pancreatic ductal adenocarcinoma cell line was routinely maintained in DMEM media; endogenous in cells; host or cells: PANC02 murine pancreatic ductal adenocarcinoma cells, induced with mouse IFNgamma
Description: The murine PANC02 pancreatic ductal adenocarcinoma cell line was routinely maintained in DMEM media containing 10% FBS. Cells (3,000/well) were seeded onto a 384 well plate in 50 μl of media and incubated at 37° C., 5% CO2 overnight. Cell media was aspirated, fresh media containing 30 ng/mL mouse IFNgamma (Gibco Life Technologies, cat #PMC4031) was added, and cells were incubated in absence or presence of various concentrations of compounds (final 0.5% DMSO) for 48 hours at 37° C., 5% CO2. Aliquots of the cell conditioned media was removed from the cell plate, and mixed with equal volume of 200 mM ZnSO4 to precipitate media containing protein. Two volumes of acetonitrile were added by mixing, and samples were then centrifuged at 2250G for 20 minutes at 4° C. Aliquots of the supernatant were diluted 1:10 in 0.1% formic acid containing 3 μM of deuterated Tryptophan as an internal standard.
Samples were analyzed via RFMS to quantify N-Formyl Kynurenine (AUC) and L-tryptophan (AUC). A C18 cartridge was used with mobile phases of 0.1% Formic Acid and 80% ACN/0.1% Formic Acid under isocratic conditions. Dose-response curves were analyzed using IC50 regression curve fitting (GeneData Screener). Curves were plotted as percent of control and normalized by high controls without inhibitor (100%), and low controls (0%) containing 1 μM of epacadostat. Cell viability was also assessed using the Cell Titer Glo Kit (Promega) following manufacture recommendation.

[2] = target: T2, IDO1 (Homo sapiens, UniProt P14902); test: IDO1 cell-based assay (HeLa cells, IFNgamma-induced, N-formylkynurenine/L-tryptophan by RFMS); settings: 10 ng/mL IFNgamma, 24 hours
T2 construct: endogenous in cells; host or cells: HeLa cells (ATCC), IFNgamma-induced
How it was run: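 HeLa cells stimulated with 10 ng/mL IFNgamma and exposed to compound (0.5% DMSO final) for 24 h at 37 °C. Conditioned media deproteinized, then N-formylkynurenine and L-tryptophan quantified by RapidFire MS with deuterated tryptophan internal standard; IC50 by curve fitting. Viability checked by CellTiter-Glo.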

T2 sequence (P14902 whole entry): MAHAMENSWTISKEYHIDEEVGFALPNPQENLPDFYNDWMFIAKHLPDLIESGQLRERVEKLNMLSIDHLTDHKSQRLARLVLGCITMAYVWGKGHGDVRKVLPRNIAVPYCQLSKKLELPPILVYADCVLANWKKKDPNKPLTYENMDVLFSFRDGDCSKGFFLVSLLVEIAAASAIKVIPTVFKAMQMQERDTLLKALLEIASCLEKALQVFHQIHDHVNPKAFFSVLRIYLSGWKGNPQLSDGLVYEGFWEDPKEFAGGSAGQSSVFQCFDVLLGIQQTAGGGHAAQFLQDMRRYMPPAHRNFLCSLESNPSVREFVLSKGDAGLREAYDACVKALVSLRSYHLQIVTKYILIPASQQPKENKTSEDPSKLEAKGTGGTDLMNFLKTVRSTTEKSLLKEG
T1 sequence (P28776 whole entry): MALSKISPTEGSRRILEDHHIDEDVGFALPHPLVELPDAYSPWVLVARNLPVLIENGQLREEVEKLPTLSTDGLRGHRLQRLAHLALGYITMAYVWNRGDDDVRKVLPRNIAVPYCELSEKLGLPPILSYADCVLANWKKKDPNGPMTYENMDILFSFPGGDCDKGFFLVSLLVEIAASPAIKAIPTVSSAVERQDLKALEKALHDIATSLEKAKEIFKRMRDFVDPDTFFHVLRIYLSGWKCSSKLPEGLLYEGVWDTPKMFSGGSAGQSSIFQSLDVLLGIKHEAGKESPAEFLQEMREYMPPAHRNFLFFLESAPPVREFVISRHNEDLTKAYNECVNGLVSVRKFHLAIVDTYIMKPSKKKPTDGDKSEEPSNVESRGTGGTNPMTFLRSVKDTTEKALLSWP

| pIC50 [1] | pIC50 [2] | Structure (SMILES) |
| --- | --- | --- |
| > 6.30 | > 6.70 | CCc1cnnn1[C@@H]1C[C@@H]2[C@H](C1)[C@H]2C(CC)NC(=O)c1ccc(Cl)cc1 (stereo partly drawn) [Compound 165, 4-chloro-N-(1-((1R,3s,5S,6r)-3-(5-ethyl-1H-1,2,3-triazol-1-yl)bicyclo[3.1.0]hexan-6-yl)propyl)benzamide] |
| > 6.30 | > 6.70 | CCc1cn([C@@H]2C[C@@H]3[C@H](C2)[C@H]3C(CC)NC(=O)c2ccc(Cl)cc2)nn1 (stereo partly drawn) [Compound 167, 4-chloro-N-(1-((1R,3s,5S,6r)-3-(4-ethyl-1H-1,2,3-triazol-1-yl)bicyclo[3.1.0]hexan-6-yl)propyl)benzamide] |
| 5.30 to 5.70 | 5.70 to 6.70 | CCC(NC(=O)c1ccc(Cl)cc1)[C@H]1[C@@H]2C[C@H](n3cc(CO)nn3)C[C@@H]21 (stereo partly drawn) [Compound 187, 4-chloro-N-(1-((1R,3r,5S,6r)-3-(4-(hydroxymethyl)-1H-1,2,3-triazol-1-yl)bicyclo[3.1.0]hexan-6-yl)propyl)benzamide] |
| < 5.30 | < 5.30 | CCC(NC(=O)c1ccc(Cl)cc1)[C@H]1[C@@H]2C[C@@H](n3cc(C4CNC4)nn3)C[C@@H]21 (stereo partly drawn) [Compound 237, N-(1-((1R,3s,5S,6r)-3-(4-(azetidin-3-yl)-1H-1,2,3-triazol-1-yl)bicyclo[3.1.0]hexan-6-yl)propyl)-4-chlorobenzamide] |
| > 6.30 | > 6.70 | CCC(NC(=O)c1ccc(Cl)cc1)[C@H]1[C@@H]2C[C@@H](n3cc4cccnc4n3)C[C@@H]21 (stereo partly drawn) [Compound 211, N-(1-((1R,3s,5S,6r)-3-(2H-pyrazolo[3,4-b]pyridin-2-yl)bicyclo[3.1.0]hexan-6-yl)propyl)-4-chlorobenzamide] |
| 5.30 to 5.70 | > 6.70 | CCC(NC(=O)c1ccc(Cl)cc1)[C@H]1[C@@H]2C[C@@H](n3nc4ccc(Br)cc4n3)C[C@@H]21 (stereo partly drawn) [Compound 179, N-(1-((1R,3s,5S,6r)-3-(5-bromo-2H-benzo[d][1,2,3]triazol-2-yl)bicyclo[3.1.0]hexan-6-yl)propyl)-4-chlorobenzamide] |
| 5.30 to 5.70 | 5.70 to 6.70 | CCC(NC(=O)c1ccc(Cl)cc1)[C@H]1[C@@H]2C[C@@H](N3CCOC3=O)C[C@@H]21 (stereo partly drawn) [Compound 185, 4-chloro-N-(1-((1R,3s,5S,6r)-3-(2-oxooxazolidin-3-yl)bicyclo[3.1.0]hexan-6-yl)propyl)benzamide] |
| 5.70 to 6.30 | 5.70 to 6.70 | CCC(NC(=O)c1ccc(Cl)cc1)[C@H]1[C@@H]2C[C@H](n3cc(COCCOC)nn3)C[C@@H]21 (stereo partly drawn) [Compound 215, 4-chloro-N-(1-((1R,3r,5S,6r)-3-(4-((2-methoxyethoxy)methyl)-1H-1,2,3-triazol-1-yl)bicyclo[3.1.0]hexan-6-yl)propyl)benzamide] |
| 5.70 to 6.30 | 5.70 to 6.70 | CCC(NC(=O)c1ccc(Cl)cc1)[C@H]1[C@@H]2C[C@@H](n3c(=O)[nH]c4ccccc43)C[C@@H]21 (stereo partly drawn) [Compound 180, 4-chloro-N-(1-((1R,3s,5S,6r)-3-(2-oxo-2,3-dihydro-1H-benzo[d]imidazol-1-yl)bicyclo[3.1.0]hexan-6-yl)propyl)benzamide] |
| > 6.30 | > 6.70 | CCC(NC(=O)c1ccc(Cl)cc1)[C@H]1[C@@H]2C[C@@H](n3nncc3C3CC3)C[C@@H]21 (stereo partly drawn) [Compound 153, 4-chloro-N-(1-((1R,3s,5S,6r)-3-(5-cyclopropyl-1H-1,2,3-triazol-1-yl)bicyclo[3.1.0]hexan-6-yl)propyl)benzamide] |
| < 5.30 | < 5.30 | CCC(NC(=O)c1ccc(Cl)cc1)[C@H]1[C@@H]2C[C@@H](n3cc(C4CN(C(C)=O)C4)nn3)C[C@@H]21 (stereo partly drawn) [Compound 257, N-(1-((1R,3s,5S,6r)-3-(4-(1-acetylazetidin-3-yl)-1H-1,2,3-triazol-1-yl)bicyclo[3.1.0]hexan-6-yl)propyl)-4-chlorobenzamide] |
| > 6.30 | > 6.70 | CCC(NC(=O)c1ccc(Cl)cc1)[C@H]1[C@@H]2C[C@@H](n3cc(N(C)C)nn3)C[C@@H]21 (stereo partly drawn) [Compound 238, 4-chloro-N-(1-((1R,3s,5S,6r)-3-(4-(dimethylamino)-1H-1,2,3-triazol-1-yl)bicyclo[3.1.0]hexan-6-yl)propyl)benzamide] |
| > 6.30 | – | CCC(NC(=O)c1ccc(Cl)cc1)[C@H]1[C@@H]2C[C@@H](n3cnc4ccc(F)cc43)C[C@@H]21 (some centres unmarked) [Compound 125] |
| < 5.30 | – | CCC(NC(=O)c1ccc(Cl)cc1)[C@H]1[C@@H]2C[C@@H](n3cnc4ccncc43)C[C@@H]21 (stereo partly drawn) [Compound 197, N-(1-((1R,3s,5S,6r)-3-(3H-imidazo[4,5-c]pyridin-3-yl)bicyclo[3.1.0]hexan-6-yl)propyl)-4-chlorobenzamide] |
| > 6.30 | – | CC[C@H](NC(=O)c1ccc(Cl)cc1)[C@H]1[C@@H]2C[C@@H](n3cnc4ccc(F)cc43)C[C@@H]21 [Compound 248, 4-chloro-N—((S)-1-((1R,3S,5S,6r)-3-(6-fluoro-1H-benzo[d]imidazol-1-yl)bicyclo[3.1.0]hexan-6-yl)propyl)benzamide] |

The next lines start with the compound.

| Structure (SMILES) | pIC50 [1] | pIC50 [2] |
| --- | --- | --- |
| O=C(NCc1ccc(Cl)cc1)[C@@H]1[C@@H]2CN(c3ncnc4ccc(F)cc34)C[C@@H]21 [Compound 249, (1R,5S,6s)-N-(4-chlorobenzyl)-3-(6-fluoroquinazolin-4-yl)-3-azabicyclo[3.1.0]hexane-6-carboxamide] | < 5.30 | < 5.30 |
| C[C@@H](NC(=O)c1ccc(C#N)cc1)[C@H]1[C@@H]2C[C@@H](Oc3ncnc4ccc(F)cc34)C[C@@H]21 [Compound 131, 4-cyano-N-((S)-1-((1R,3R,5S,6r)-3-((6-fluoroquinazolin-4-yl)oxy)bicyclo[3.1.0]hexan-6-yl)ethyl)benzamide] | 5.70 to 6.30 | > 6.70 |
| CCC(NC(=O)c1ccc(Cl)cc1)[C@H]1[C@@H]2C[C@@H](C(C(=O)OC)c3ccccc3)C[C@@H]21 (mixture of isomers) [Compound 203, methyl (S)-2-((R, 3R, 5S,6S)-6-((S)-1-(4-chlorobenzamido)propyl)bicyclo[3.1.0]hexan-3-yl)-2-phenylacetate and methyl (R)-2-((1R,3R,5S, 6S)-6-((R)-1-(4-chlorobenzamido)propyl)bicyclo[3.1.0]hexan-3-yl)-2-phenylacetate] | > 6.30 | 5.70 to 6.70 |
| CCC(NC(=O)c1ccc(Cl)cc1)[C@H]1[C@@H]2C[C@H](NC(=O)c3ccc(F)cn3)C[C@@H]21 (stereo partly drawn) [Compound 221, N-((1R,3r,5S,6r)-6-(1-(4-chlorobenzamido)propyl)bicyclo[3.1.0]hexan-3-yl)-5-fluoropicolinamide] | > 6.30 | > 6.70 |
| CCC(NC(=O)c1ccc(Cl)cc1)[C@H]1[C@@H]2C[C@H](NC(=O)c3ncccc3F)C[C@@H]21 (stereo partly drawn) [Compound 220, N-((1R,3r,5S,6r)-6-(1-(4-chlorobenzamido)propyl)bicyclo[3.1.0]hexan-3-yl)-3-fluoropicolinamide] | > 6.30 | > 6.70 |
| O=C(Nc1ccc(Cl)cc1)[C@H]1[C@@H]2CN(c3ncnc4ccc(F)cc34)C[C@@H]21 [Compound 252, (1R,5S,6r)-N-(4-chlorophenyl)-3-(6-fluoroquinazolin-4-yl)-3-azabicyclo[3.1.0]hexane-6-carboxamide] | 5.30 to 5.70 | < 5.30 |
| CC[C@@H](NC(=O)c1ccc(Cl)cc1)[C@H]1[C@@H]2C[C@@H](n3cnc4ccc(F)cc43)C[C@@H]21 [Compound 247, 4-chloro-N—((R)-1-((1R,3S,5S, 6r)-3-(6-fluoro-1H-benzo[d]imidazol-1-yl)bicyclo[3.1.0]hexan-6-yl)propyl)benzamide] | > 6.30 | – |
| CCC(NC(=O)c1ccc(Cl)cc1)[C@H]1[C@@H]2C[C@@H](NC(=O)c3ccc(OC)cn3)C[C@@H]21 (stereo partly drawn) [Compound 164, N-((1R,3s,5S,6r)-6-(1-(4-chlorobenzamido)propyl)bicyclo[3.1.0]hexan-3-yl)-5-methoxypicolinamide] | 5.70 to 6.30 | 5.70 to 6.70 |
| CCC(NC(=O)c1ccc(Cl)cc1)[C@H]1[C@@H]2C[C@@H](NC(=O)c3ccccn3)C[C@@H]21 (stereo partly drawn) [Compound 117, N-((1R,3s,5S,6r)-6-(1-(4-chlorobenzamido)propyl)bicyclo[3.1.0]hexan-3-yl)picolinamide] | 5.30 to 5.70 | > 6.70 |
| CCC(NC(=O)c1ccc(Cl)cc1)[C@H]1[C@@H]2C[C@@H](NC(=O)c3cccnc3)C[C@@H]21 (stereo partly drawn) [Compound 145, N-((1R,3s,5S,6r)-6-(1-(4-chlorobenzamido)propyl)bicyclo[3.1.0]hexan-3-yl)nicotinamide] | < 5.30 | > 6.70 |
| O=C(NC(CCO)[C@H]1[C@@H]2C[C@@H](n3ncc(=O)c4ccccc43)C[C@@H]21)c1ccc(Cl)cc1 (stereo partly drawn) [Compound 140, 4-chloro-N-(3-hydroxy-1-((1R,3s, 5S, 6r)-3-(4-oxocinnolin-1(4H)-yl)bicyclo[3.1.0]hexan-6-yl)propyl)benzamide] | – | > 6.70 |
